Results from patent US8354372B2 (priority 2006, dated 2013).
Bridge positions count the residues as written; N and C are the ends. Peptide text beside a SMILES is read from it.

What was measured:
[1] = tested on: bovine adrenal chromaffin cells; type: cell-based
in vitro = conditions: human, plasma
[2] = biological target: endoproteinase Glu-C (Endo Glu-C) (Staphylococcus aureus, UniProt P0C1U8); conditions: pH 8
Chain of endoproteinase Glu-C (Endo Glu-C) (P0C1U8 69-336 limits assumed): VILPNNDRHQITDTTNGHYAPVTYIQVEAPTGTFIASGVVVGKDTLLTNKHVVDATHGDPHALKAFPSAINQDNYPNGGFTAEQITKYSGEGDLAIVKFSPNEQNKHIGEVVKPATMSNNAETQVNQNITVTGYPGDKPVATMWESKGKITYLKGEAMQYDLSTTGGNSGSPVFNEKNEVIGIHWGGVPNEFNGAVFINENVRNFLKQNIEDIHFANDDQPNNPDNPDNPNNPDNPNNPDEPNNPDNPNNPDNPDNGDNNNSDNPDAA

SMILES | stability in human plasma relative to MII | inhibition of nicotine-evoked catecholamine release, activity relative to linear MII [1] | remaining at 24 h (in vitro) [%] | intact peptide remaining on incubation with Endo-GluC [2]
CC(C)C[C@@H]1NC(=O)[C@H](CC(N)=O)NC(=O)[C@H](CO)NC(=O)[C@H](Cc2c[nH]cn2)NC(=O)[C@H](CCC(=O)O)NC(=O)[C@H](CC(C)C)NC(=O)[C@H](Cc2c[nH]cn2)NC(=O)[C@@H]2CSSC[C@@H]3NC(=O)CNC(=O)CNC(=O)CNC(=O)[C@H](C)NC(=O)[C@H](C)NC(=O)CNC(=O)CNC(=O)[C@H](CSSC[C@H](NC3=O)C(=O)N[C@@H](CO)C(=O)N[C@@H](CC(N)=O)C(=O)N3CCC[C@H]3C(=O)N[C@@H](C(C)C)C(=O)N2)NC1=O [cMII-6] (cyclo(AAGGGCCSNPVCHLEHSNLCGG); disulfide 6-12, 7-20) | dramatically greater than MII | comparable to linear MII | ~90 | remain entirely intact
CC(C)C[C@@H]1NC(=O)[C@H](CC(N)=O)NC(=O)[C@H](CO)NC(=O)[C@H](Cc2c[nH]cn2)NC(=O)[C@H](CCC(=O)O)NC(=O)[C@H](CC(C)C)NC(=O)[C@H](Cc2c[nH]cn2)NC(=O)[C@@H]2CSSC[C@@H]3NC(=O)CNC(=O)CNC(=O)[C@H](C)NC(=O)[C@H](C)NC(=O)CNC(=O)[C@H](C)NC(=O)CNC(=O)CNC(=O)[C@H](CSSC[C@H](NC3=O)C(=O)N[C@@H](CO)C(=O)N[C@@H](CC(N)=O)C(=O)N3CCC[C@H]3C(=O)N[C@@H](C(C)C)C(=O)N2)NC1=O [cMII-7] (cyclo(AAGGCCSNPVCHLEHSNLCGGAG); disulfide 5-11, 6-19) | dramatically greater than MII | comparable to linear MII | ~90 | remain entirely intact
